# Patent US8883227B2, “Plant pathogen inhibitor combinations and methods of use” (priority 2009, dated 2014)
# Columns and labels:
# Format in all cases: in vivo
# Bremia lactucae = assay: Lettuce downy mildew test on cotyledons
# Method: Synergy between MBI-106 and acibenzolar-S-methyl or mefenoxam which control a specific class of pathogens Oomycetes was tested with lettuce downy mildew following Su et al. (2004).
# To prepare inoculum of downy mildew, lettuce seeds were placed on […] petri-dishes with about 20-30 seeds in each and watered with sterile water, then supplied with ½ strength of Hoagland's solution after germination. The petri dishes were placed at 20° C. growth chamber for 7-10 days. The spores of Bremia lactucae was inoculated on lettuce cotyledons and cultured for 7-10 days at 15° C. for sporulation to occur. Cotyledons with sporulation were cut off and placed in a falcon tube with sterile water. The cotyledons were vortexed for 15 seconds three times and filtered through a 100-uμm mesh to collect sporangia. The solution was adjusted to 0.5 to 1.0×10^5 spores/ml for inoculation.
# Four test plants were seeded in each 2-in pots and then placed at 20° C. for 7-10 days to grow cotyledons. Plants were ready for test when the first true leaf was emerging.
# The lettuce plants were treated with the materials and left to dry or overnight. Then the plants were inoculated with sporangial solution. The treatments were arranged in a randomized complete block design with four replicates. The inoculated plants were placed in darkness in growth chamber for 48 hours and then incubated under 12-h light period at 15° C. Eight to ten days after inoculation, the cotyledons were rated for disease severity (percentage area covered with sporangiophores).
# Rhizoctonia solani = assay: Soybean seed treatment (seed coating) in infested soil, damping off; conditions: inoculated
# Method: The experiments described below were conducted with soybean but similar procedures are used with other crops such as cereals, corn, cotton, and potatoes.
# The experiments were conducted in a greenhouse following the procedure developed by Hwang et al. (2006). The isolate of Rhizoctonia solani was grown on potato dextrose agar plates and cultured for 5 days for inoculating oat or wheat grain. One liter of grain was soaked overnight at room temperature (25° C.) and rinsed three times with tape water. The 8×12-in autoclave bags were filled with the grain up to ⅓ full were autoclaved at 121° C. for 15 min. The autoclaved grain then was then inoculated with 5 pieces of 1×1 cm plug of the 5-day culture of R. solani per bag and cultured for 5 days at room temperature (25° C.). The bags were left open in laminar flow hood to let the grain completely dry.
# The blank seed sample of 10 g to be coated was placed in a flask. Coating agent SEPIRET® 1171-O (Becker Underwood Ltd., Ames, Iowa) was put into the flasks together with the compound of interest, and the flask was shaken vigorously so that the seed picked up the compound. The procedure was repeated with fresh seed sample of cvs. “White Lion” (Kitazawa Seed Co., Oakland, Calif.) or “Viking 2265” (Johnny's Selected Seeds, Winslow, Me.) in the same flask for the treatments. After the seeds were coated, they were left to air dry before planting.
# To prepare the soil, five hundred milliliters of the dried grains with inoculum were blended for 15 seconds three times and the powder was mixed with sterile sand at 1:1 (v/v) to dilute the inoculum. The sand mix was further used to prepare soil mix at various proportions 1:350 to 1:800 (inoculum:soil) for soybean to generate various disease levels in repeated tests.
# The coated seeds were planted in the pots with infested soil. There were three replicates of each treatment which were arranged in a complete randomized block design and placed at 25 to 30° C. in a greenhouse.
# After 10 to 20 days, depending on disease pressure and temperature, emergence of each treatment was rated and compared. Biomass was measured by weighing the above-ground portion which was measured for each replicate of the plant material.
# Sphaerotheca fuliginea = assay: Greenhouse cucumber powdery mildew test, foliar spray alone or in tank mix
# Method: The studies were conducted in a green house. Experimental design of the studies for synergism followed the Burpee and Latin (2008). Powdery mildew, caused by Sphaerotheca fuliginea, was used for investigating the efficacy of the treatments.
# Cucumber seeds cv. “SMR 58” (Irwin & Sons Ag Supply, Inc. Cheshire, Oreg.) were grown in plastic 4-inch pots with potting soil mix (Rod McLellan Company, Marysville, Ohio). The plants were treated at 2-true leaf stage. The compounds at various rates were sprayed with a 2-oz mist sprayer at 2 ml per plant at upper side and 1 ml at lower side of the leaves. The treated plants were left for 3-4 hours under florescent light to dry before inoculation.
# A conidia suspension of Sphaerotheca fuliginea, the causal agent of powdery mildew disease on cucumber, was prepared by cutting diseases leaves of the cucumber plants that are served for conservation of inoculum. The suspension were adjusted to 2.0×10^5 conidia per ml and applied with a 2-oz mist sprayer at 2 ml per plant on the upper side of the leaves. The inoculated plants were placed in a greenhouse and the treatments were arranged in randomized complete blocks with 4 to 6 replicates at 25° C. to 30° C.
# The disease severity (percentage area covered with colonies) of the first leaves were rated according to James (1971). Disease severity and percentage control were analyzed with analysis of variance (ANOVA) and means of the treatments were compared with Fisher's Protected Least Difference (LSD) at p=0.05 level. Synergetic effect was calculated and analyzed with Limpel's formula (Limpel et al., 1962; Richer, 1987).
# [1] = Example VII, mefenoxam 37.5 ug/ml alone
# [2] = Example VII, mefenoxam 75 ug/ml alone
# [3] = Example VII, mefenoxam 150 ug/ml alone
# [4] = Example VI, acibenzolar-S-methyl 25 ug/ml alone
# [5] = Example IX, fludioxonil 0.0596 g ai/kg alone
# [6] = Example V, triflumizole 0.25 ug/ml alone
# [7] = Example V, triflumizole 0.5 ug/ml alone
# [8] = Example V, triflumizole 1.0 ug/ml alone
# [9] = Example III, quinoxyfen 0.01 ug/ml alone
# [10] = Example III, quinoxyfen 0.05 ug/ml alone
# [11] = Example IV, azoxystrobin 0.25 ug/ml alone
# [12] = Example IV, azoxystrobin 0.5 ug/ml alone
# [13] = Example IV, azoxystrobin 1.0 ug/ml alone
# [14] = Example IV, azoxystrobin 5.0 ug/ml alone
# [15] = Example IV, azoxystrobin 10.0 ug/ml alone
# [16] = Example XI (Test II), azoxystrobin 0.1 ug/ml alone
# [17] = Example XI (Test II), azoxystrobin 0.25 ug/ml alone
# [18] = Example XI (Test II), azoxystrobin 0.5 ug/ml alone
# [19] = Example VIII, azoxystrobin 0.0298 g/kg alone
# [20] = Example I, myclobutanil 0.05 ug/ml alone
# [21] = Example I, myclobutanil 0.1 ug/ml alone
# [22] = Example I, myclobutanil 0.25 ug/ml alone
# [23] = Example II (repeated test), myclobutanil 0.05 ug/ml alone
# [24] = Example II (repeated test), myclobutanil 0.1 ug/ml alone
# [25] = Example II (repeated test), myclobutanil 0.25 ug/ml alone
# [26] = Example X, propiconazole 1.0 ug/ml alone
compound,measurement,setting,value
COCC(=O)N(c1c(C)cccc1C)[C@H](C)C(=O)OC [mefenoxam],Control (%),Bremia lactucae; [1],−2.6%
same,Severity (%),Bremia lactucae; [1],89.3%
same,Control (%),Bremia lactucae; [2],37.7%
same,Severity (%),Bremia lactucae; [2],54.2%
same,Control (%),Bremia lactucae; [3],48.5%
same,Severity (%),Bremia lactucae; [3],44.8%
CSC(=O)c1cccc2nnsc12 [acibenzolar-S-methyl],Control (%),Bremia lactucae; [4],23.4%
same,Severity (%),Bremia lactucae; [4],68.9%
N#Cc1c[nH]cc1-c1cccc2c1OC(F)(F)O2 [fludioxonil],Bio mass,Rhizoctonia solani; [5],8.7 g
same,Control (%),Rhizoctonia solani; [5],28.4%
same,Emergence (%),Rhizoctonia solani; [5],35.8%
CCCOC/C(=N\c1ccc(Cl)cc1C(F)(F)F)n1ccnc1 [triflumizole],Control (%),Sphaerotheca fuliginea; [6],2.6%
same,Severity (%),Sphaerotheca fuliginea; [6],95.0%
same,Control (%),Sphaerotheca fuliginea; [7],11.5%
same,Severity (%),Sphaerotheca fuliginea; [7],86.3%
same,Control (%),Sphaerotheca fuliginea; [8],20.5%
same,Severity (%),Sphaerotheca fuliginea; [8],77.5%
"Fc1ccc(Oc2ccnc3cc(Cl)cc(Cl)c23)cc1 [quinoxyfen, 5,7-dichloro-4-quinolyl 4-fluorophenyl ether]",Control (%),Sphaerotheca fuliginea; [9],1.33%
same,Severity (%),Sphaerotheca fuliginea; [9],90.0%
same,Control (%),Sphaerotheca fuliginea; [10],66.95%
same,Severity (%),Sphaerotheca fuliginea; [10],30.0%
CO/C=C(/C(=O)OC)c1ccccc1Oc1cc(Oc2ccccc2C#N)ncn1 [azoxystrobin],Control (%),Sphaerotheca fuliginea; [11],51.8%
same,Severity (%),Sphaerotheca fuliginea; [11],45.0%
same,Control (%),Sphaerotheca fuliginea; [12],48.0%
same,Severity (%),Sphaerotheca fuliginea; [12],48.8%
same,Control (%),Sphaerotheca fuliginea; [13],68.1%
same,Severity (%),Sphaerotheca fuliginea; [13],30.0%
same,Control (%),Sphaerotheca fuliginea; [14],94.3%
same,Severity (%),Sphaerotheca fuliginea; [14],5.3%
same,Control (%),Sphaerotheca fuliginea; [15],87.6%
same,Severity (%),Sphaerotheca fuliginea; [15],11.3%
same,Control (%),Sphaerotheca fuliginea; [16],21.6%
same,Severity (%),Sphaerotheca fuliginea; [16],72.5%
same,Control (%),Sphaerotheca fuliginea; [17],13.5%
same,Severity (%),Sphaerotheca fuliginea; [17],80.0%
same,Control (%),Sphaerotheca fuliginea; [18],62.2%
same,Severity (%),Sphaerotheca fuliginea; [18],35.0%
same,Control (%),Rhizoctonia solani; [19],81.5%
same,Emergence (%),Rhizoctonia solani; [19],86.4%
CCCCC(C#N)(Cn1cncn1)c1ccc(Cl)cc1 (centres unmarked) [myclobutanil],Control (%),Sphaerotheca fuliginea; [20],2.5%
same,Severity (%),Sphaerotheca fuliginea; [20],95.8%
same,Control (%),Sphaerotheca fuliginea; [21],3.2%
same,Severity (%),Sphaerotheca fuliginea; [21],95.0%
same,Control (%),Sphaerotheca fuliginea; [22],83.1%
same,Severity (%),Sphaerotheca fuliginea; [22],16.7%
same,Control (%),Sphaerotheca fuliginea; [23],−2.8%
same,Severity (%),Sphaerotheca fuliginea; [23],93.8%
same,Control (%),Sphaerotheca fuliginea; [24],12.2%
same,Severity (%),Sphaerotheca fuliginea; [24],80.0%
same,Control (%),Sphaerotheca fuliginea; [25],41.3%
same,Severity (%),Sphaerotheca fuliginea; [25],53.8%
CCCC1COC(Cn2cncn2)(c2ccc(Cl)cc2Cl)O1 (centres unmarked) [propiconazole],Control (%),Sphaerotheca fuliginea; [26],1.3%
same,Severity (%),Sphaerotheca fuliginea; [26],97.5%
